Assay results: patent publication US20100298141A1, “SUBSTITUTED PYRIDINE N-OXIDE HERBICIDES” (E. I. DU PONT DE NEMOURS AND COMPANY, priority 2007, published 2010)

How the values were obtained:
barnyardgrass [1] = assay: Test C flooded paddy test; assay type: in vivo, Echinochloa crus-galli; conditions: Flood
How it was run: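 Greenhouse pots flooded to 3 cm above soil at time of treatment received compound via the water, which stayed at that level.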

bermudagrass = assay: Test C pre-/postemergence test; assay type: in vivo, Cynodon dactylon; conditions: for Plant response rating, Bermudagrass: scale 0 to 100, 0 no effect, 100 complete control
How it was run: (§1)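 Test chemicals were formulated with surfactant in a non-phytotoxic solvent and sprayed both on freshly planted seeds (preemergence) and on 1- to 4-leaf plants of 2–18 cm (postemergence). Flooded-paddy pots received compound directly into 3 cm of standing water, maintained for the test.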

Italian ryegrass = assay: Test C pre-/postemergence test; assay type: in vivo, Lolium multiflorum; conditions: for Plant response rating, Ryegrass, Italian: scale 0 to 100, 0 no effect, 100 complete control
How it was run: as §1

cocklebur = assay: Test C pre-/postemergence test; assay type: in vivo, Xanthium strumarium; conditions: for Plant response rating, Cocklebur: scale 0 to 100, 0 no effect, 100 complete control
How it was run: as §1

soybean = assay: Test C pre-/postemergence test; assay type: in vivo, Glycine max; conditions: for Plant response rating, Soybean: scale 0 to 100, 0 no effect, 100 complete control
How it was run: as §1

Surinam grass = assay: Test C pre-/postemergence test; assay type: in vivo, Brachiaria decumbens; conditions: for Surinam Grass plant response rating: preemergence, scale 0 (no effect) to 100 (complete control); for Plant response rating, Surinam Grass: scale 0 to 100, 0 no effect, 100 complete control
How it was run: as §1

Goosegrass = assay: Test C pre-/postemergence test; assay type: in vivo, Eleusin indica; conditions: for Plant response rating, Goosegrass: scale 0 to 100, 0 no effect, 100 complete control
How it was run: as §1

kochia = assay: Test C pre-/postemergence test; assay type: in vivo, Kochia scoparia; conditions: for Plant response rating, Kochia: scale 0 to 100, 0 no effect, 100 complete control
How it was run: as §1

lambsquarters = assay: Test C pre-/postemergence test; assay type: in vivo, Chenopodium album; conditions: for Plant response rating, Lambsquarters: scale 0 to 100, 0 no effect, 100 complete control
How it was run: as §1

giant foxtail = assay: Test A pre-/postemergence greenhouse test; assay type: in vivo, Setaria faberi; conditions: for Foxtail, Giant plant response rating: 0 to 100 scale
How it was run: (§2)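 Visual injury ratings, made relative to untreated controls roughly ten days after treatment, cover both preemergence and postemergence application. Compounds in a surfactant-containing non-phytotoxic solvent were sprayed onto the soil surface after sowing and, simultaneously, onto young plants at the one- to two-leaf stage.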

barnyardgrass [2] = assay: Test A pre-/postemergence greenhouse test; assay type: in vivo, Echinochloa crus-galli; conditions: for Barnyardgrass plant response rating: 0 to 100 scale
How it was run: as §2

morningglory = assay: Test A pre-/postemergence greenhouse test; assay type: in vivo, Ipomoea spp.; conditions: for Morningglory plant response rating: 0 to 100 scale
How it was run: as §2

[3] = tested on: common (oilseed) sunflower; assay: Test C pre-/postemergence test; assay type: in vivo, Helianthus annuus; conditions: for Sunflower plant response rating: preemergence, scale 0 (no effect) to 100 (complete control)
How it was run: as §1

crabgrass [4] = assay: Test A pre-/postemergence greenhouse test; assay type: in vivo, Digitaria sanguinalis; conditions: for Crabgrass, Large plant response rating: 0 to 100 scale
How it was run: as §2

pigweed = assay: Test C pre-/postemergence test; assay type: in vivo, Amaranthus retroflexus; conditions: for Plant response rating, Pigweed: scale 0 to 100, 0 no effect, 100 complete control
How it was run: as §1

crabgrass [5] = assay: Test C pre-/postemergence test; assay type: in vivo, Digitaria sanguinalis; conditions: for Plant response rating, Crabgrass, Large: scale 0 to 100, 0 no effect, 100 complete control
How it was run: as §1

[6] = 31 g ai/ha, Preemergence, scale 0 to 100
[7] = 62 g ai/ha, preemergence, scale 0 (no effect) to 100 (complete control)
[8] = preemergence, 125 g ai/ha, scale 0 (no effect) to 100 (complete control)
[9] = Postemergence, 125 g ai/ha, 0 is no effect, 100 is complete control
[10] = Postemergence, 500 g ai/ha, 0 is no effect, 100 is complete control
[11] = Preemergence, 125 g ai/ha, 0 no effect, 100 complete control
[12] = Preemergence, 500 g ai/ha, 0 to 100 scale where 0 is no effect and 100 is complete control

Cn1nc(C(F)(F)F)c(C[S+]([O-])c2cccc[n+]2[O-])c1OC(F)F (centres unmarked) [Compound 3]
Plant response rating, Barnyardgrass (barnyardgrass [1]; 31 g ai/ha, scale 0 to 100 (0 no effect, 100 complete control)): 0 | Plant response rating, Barnyardgrass (barnyardgrass [1]; 62 g ai/ha, scale 0 to 100, 0 no effect, 100 complete control, 13 to 15 days): 50 | Plant response rating, Barnyardgrass (barnyardgrass [1]; 125 g ai/ha, scale 0 to 100, 0 no effect, 100 complete control, 13 to 15 days): 75 | Plant response rating, Barnyardgrass (barnyardgrass [1]; 250 g ai/ha, scale 0 to 100 (0 no effect, 100 complete control)): 85 | Bermudagrass plant response rating (bermudagrass; [6]): 80 | Bermudagrass plant response rating (bermudagrass; [7]): 100 | Plant response rating (0 to 100), Bermudagrass (bermudagrass; Postemergence, 31 g ai/ha): 0 | Plant response rating, Bermudagrass (bermudagrass; Postemergence, 125 g ai/ha): 50 | Plant response rating, Bermudagrass (bermudagrass; Postemergence, 250 g ai/ha): 50 | Plant response rating (0 to 100), Bermudagrass (bermudagrass; Preemergence, 250 g ai/ha): 100 | Bermudagrass plant response rating (bermudagrass; [8]): 100 | Ryegrass, Italian plant response rating (Italian ryegrass; [6]): 60 | Ryegrass, Italian plant response rating (Italian ryegrass; [7]): 100 | Plant response rating (0 to 100), Ryegrass, Italian (Italian ryegrass; Postemergence, 31 g ai/ha): 0 | Plant response rating (0 to 100), Ryegrass, Italian (Italian ryegrass; Postemergence, 62 g ai/ha): 0 | Plant response rating, Ryegrass, Italian (Italian ryegrass; Postemergence, 125 g ai/ha): 0 | Plant response rating, Ryegrass, Italian (Italian ryegrass; Postemergence, 250 g ai/ha): 40 | Plant response rating (0 to 100), Ryegrass, Italian (Italian ryegrass; Preemergence, 250 g ai/ha): 100 | Ryegrass, Italian plant response rating (Italian ryegrass; [8]): 100 | Cocklebur plant response rating (cocklebur; [6]): 0 | Cocklebur plant response rating (cocklebur; [7]): 0 | Plant response rating (0 to 100), Cocklebur (cocklebur; Postemergence, 31 g ai/ha): 0 | Plant response rating, Cocklebur (cocklebur; Postemergence, 62 g ai/ha): 0 | Plant response rating, Cocklebur (cocklebur; Postemergence, 125 g ai/ha): 0 | Plant response rating, Cocklebur (cocklebur; Postemergence, 250 g ai/ha): 10 | Plant response rating (0 to 100), Cocklebur (cocklebur; Preemergence, 250 g ai/ha): 5 | Cocklebur plant response rating (cocklebur; [8]): 0 | Soybean plant response rating (soybean; [6]): 5 | Soybean plant response rating (soybean; [7]): 30 | Plant response rating (0 to 100), Soybean (soybean; Postemergence, 31 g ai/ha): 40 | Plant response rating (0 to 100), Soybean (soybean; Postemergence, 62 g ai/ha): 60 | Plant response rating, Soybean (soybean; Postemergence, 125 g ai/ha): 70 | Plant response rating, Soybean (soybean; Postemergence, 250 g ai/ha): 85 | Plant response rating (0 to 100), Soybean (soybean; Preemergence, 250 g ai/ha): 95 | Soybean plant response rating (soybean; [8]): 95 | Surinam Grass plant response rating (Surinam grass; 62 g ai/ha): 100 | Plant response rating (0 to 100), Surinam Grass (Surinam grass; Postemergence, 31 g ai/ha): 0 | Plant response rating (0 to 100), Surinam Grass (Surinam grass; Postemergence, 62 g ai/ha): 0 | Plant response rating, Surinam Grass (Surinam grass; Postemergence, 125 g ai/ha): 50 | Plant response rating, Surinam Grass (Surinam grass; Postemergence, 250 g ai/ha): 55 | Plant response rating (0 to 100), Surinam Grass (Surinam grass; Preemergence, 250 g ai/ha): 100 | Surinam Grass plant response rating (Surinam grass; 125 g ai/ha): 100 | Goosegrass plant response rating (Goosegrass; [6]): 85 | Goosegrass plant response rating (Goosegrass; [7]): 100 | Plant response rating (0 to 100), Goosegrass (Goosegrass; Postemergence, 31 g ai/ha): 20 | Plant response rating, Goosegrass (Goosegrass; Postemergence, 62 g ai/ha): 50 | Plant response rating, Goosegrass (Goosegrass; Postemergence, 125 g ai/ha): 65 | Plant response rating, Goosegrass (Goosegrass; Postemergence, 250 g ai/ha): 80 | Plant response rating (0 to 100), Goosegrass (Goosegrass; Preemergence, 250 g ai/ha): 100 | Goosegrass plant response rating (Goosegrass; [8]): 100 | Kochia plant response rating (kochia; [6]): 80 | Kochia plant response rating (kochia; [7]): 100 | Plant response rating (0 to 100), Kochia (kochia; Postemergence, 31 g ai/ha): 5 | Plant response rating, Kochia (kochia; Postemergence, 62 g ai/ha): 5 | Plant response rating, Kochia (kochia; Postemergence, 125 g ai/ha): 10 | Plant response rating, Kochia (kochia; Postemergence, 250 g ai/ha): 10 | Plant response rating (0 to 100), Kochia (kochia; Preemergence, 250 g ai/ha): 100 | Kochia plant response rating (kochia; [8]): 100 | Lambsquarters plant response rating (lambsquarters; [6]): 98 | Lambsquarters plant response rating (lambsquarters; [7]): 100 | Plant response rating (0 to 100), Lambsquarters (lambsquarters; Postemergence, 31 g ai/ha): 10 | Plant response rating, Lambsquarters (lambsquarters; Postemergence, 62 g ai/ha): 15 | Plant response rating, Lambsquarters (lambsquarters; Postemergence, 125 g ai/ha): 20 | Plant response rating, Lambsquarters (lambsquarters; Postemergence, 250 g ai/ha): 20 | Plant response rating (0 to 100), Lambsquarters (lambsquarters; Preemergence, 250 g ai/ha): 100 | Lambsquarters plant response rating (lambsquarters; [8]): 100 | Foxtail, Giant plant response rating (giant foxtail; [9]): 80 | Foxtail, Giant plant response rating (giant foxtail; [10]): 90 | Foxtail, Giant plant response rating (giant foxtail; [11]): 100 | Plant response rating, Foxtail, Giant (giant foxtail; [12]): 100 | Barnyardgrass plant response rating (barnyardgrass [2]; [9]): 80 | Barnyardgrass plant response rating (barnyardgrass [2]; [10]): 90 | Barnyardgrass plant response rating (barnyardgrass [2]; [11]): 80 | Plant response rating, Barnyardgrass (barnyardgrass [2]; [12]): 100 | Morningglory plant response rating (morningglory; [9]): 70 | Morningglory plant response rating (morningglory; [10]): 90 | Morningglory plant response rating (morningglory; [11]): 80 | Plant response rating, Morningglory (morningglory; [12]): 100 | Sunflower plant response rating ([3]; 62 g ai/ha): 15 | Plant response rating (0 to 100), Sunflower ([3]; Preemergence, 250 g ai/ha): 95 | Sunflower plant response rating ([3]; 125 g ai/ha): 70 | Crabgrass, Large plant response rating (crabgrass [4]; [9]): 80 | Crabgrass, Large plant response rating (crabgrass [4]; [10]): 90 | Crabgrass, Large plant response rating (crabgrass [4]; [11]): 90 | Plant response rating, Crabgrass, Large (crabgrass [4]; [12]): 100 | Pigweed plant response rating (pigweed; [6]): 75 | Pigweed plant response rating (pigweed; [7]): 100 | Plant response rating (0 to 100), Pigweed (pigweed; Postemergence, 31 g ai/ha): 0 | Plant response rating (0 to 100), Pigweed (pigweed; Postemergence, 62 g ai/ha): 0 | Plant response rating, Pigweed (pigweed; Postemergence, 125 g ai/ha): 10 | Plant response rating, Pigweed (pigweed; Postemergence, 250 g ai/ha): 60 | Plant response rating (0 to 100), Pigweed (pigweed; Preemergence, 250 g ai/ha): 100 | Pigweed plant response rating (pigweed; [8]): 100 | Crabgrass, Large plant response rating (crabgrass [5]; [6]): 45 | Crabgrass, Large plant response rating (crabgrass [5]; [7]): 98 | Plant response rating (0 to 100), Crabgrass, Large (crabgrass [5]; Postemergence, 31 g ai/ha): 0 | Plant response rating, Crabgrass, Large (crabgrass [5]; Postemergence, 62 g ai/ha): 0 | Plant response rating, Crabgrass, Large (crabgrass [5]; Postemergence, 125 g ai/ha): 50 | Plant response rating, Crabgrass, Large (crabgrass [5]; Postemergence, 250 g ai/ha): 70 | Plant response rating (0 to 100), Crabgrass, Large (crabgrass [5]; Preemergence, 250 g ai/ha): 100 | Crabgrass, Large plant response rating (crabgrass [5]; [8]): 100
